Test results as given in patent publication US12497417B2, “Delivery systems for controlled drug release” (LADRX CORPORATION, priority 2015, dated 2025).

How the values were obtained:
[1] = system: human ovarian carcinoma xenograft model OVXF 899; test: Gemcitabine and compound 15 in human ovarian carcinoma xenograft model OVXF 899; assay type: in vivo, NMRI nude mice; conditions: for Body weight change (BWC) versus control: compound 15 18 mg/kg gemcitabine equivalents i.v. days 1, 4, 8, 11, 15, 18, 22, 25
Method: Animals were kept in cages, the temperature inside the cages maintained at 25±1° C. with a relative humidity of 45-65% and an air change rate in the cage of 60-fold per hour. […] Feed and water were provided ad libitum. […] Animals were routinely monitored twice daily on working days and daily on Saturdays and Sundays. Starting on day 0, animals were weighed twice a week. Relative body weights (RBW) of individual animals are calculated by dividing the individual absolute body weight on day X (BWx) by the individual body weight on the day of randomization. The tumor volume is determined by a two-dimensional measurement with calipers on the day of randomization (Day 0) and then twice weekly. […] Schedules are applied to the extent that animal welfare policies allow. […] Frozen in liquid nitrogen, lyophilized (>48 h) and stoppered.

[2] = system: human pancreatic carcinoma xenograft model Panc11159; test: Gemcitabine and compound 15 in human pancreatic carcinoma xenograft model Panc11159; assay type: in vivo, NMRI nude mice; conditions: for tumor volumes (change): at day 85, gemcitabine 240 mg/kg, compound 15 18 mg/kg gemcitabine equivalents; for Body weight change (BWC) versus control: gemcitabine 240 mg/kg i.v. d 36, 43, 50, 57, compound 15 18 mg/kg gemcitabine equivalents i.v. d 36, 40, 43, 47, 50, 54, 57, 60
Method: Female NMRI nude mice (nu/nu) received unilateral Panc11159 tumor pieces subcutaneously implanted until tumors were palpable and had reached a volume of ˜200 mm^3. Animals were kept in cages (Macrolon Type-II wire-mesh), the temperature inside the cages maintained at 22±1° C. with a relative humidity of 50±10%. Light period: artificial; 12-hours dark/12 hours light rhythm (light 06.00 to 18.00 hours). The health of the mice was examined at the start of the experiment and twice per day during the experiment; identification: Ear mark and cage labels. The animals were fed with Ssniff NM, Soest, Germany and had access to autoclaved and acidified (pH 4.0) drinking. Feed and water were provided ad libitum.
Body weight change was performed two or three times per week. Tumor diameters (median and medium) were measured two or three times a week with a caliper. Tumor volumes were calculated according to V=(length×(width)2)/2. For calculation of the relative tumor volume (RTV) the tumor volumes at each measurement day were related to the day of first treatment. Stock solutions of compound 15 were prepared as follows for the two treatment groups: • 10 mice, 30-40 g average weight: 2×18 mg/kg gemcitabine equivalents (bi-weekly dosing for 4 weeks)≡58.4 mg/kg≡2.35 mg/mouse. Sample preparation: 115.5 mg weighed in a 10 mL vial dissolved in 7.35 mL 20 mM sodium phosphate buffer pH 7; 4 aliquots with 1.86 mL each in 10 mL vials. Frozen in liquid nitrogen, lyophilized (>48 h) and stoppered.
On the day of treatment the lyophilized samples were dissolved in 20 mM sodium phosphate buffer pH 7, containing 5% Glucose and injected intravenously. Intravenous administration with vehicle (20 mM sodium phosphate buffer, 5% D-glucose—pH 7.0) gemcitabine (dissolved in 5% D-glucose; dose 240 mg/kg) and carried out on d 36, 43, 50, 57 compound 15 (dissolved in 20 mM sodium phosphate buffer, 5% D-glucose—pH 7.0; 18 mg/kg gemcitabine equivalents) was carried on days d 36, 40, 43, 47, 50, 54, 57, and 60.

[3] = system: human non-small cell carcinoma xenograft model LXFE 937; test: Gemcitabine and compound 15 in human non-small cell carcinoma xenograft model LXFE 937; assay type: in vivo, NMRI nude mice; conditions: for Body weight change (BWC) versus control: compound 15 18 mg/kg gemcitabine equivalents i.v. days 0, 3, 7, 10, 14, 17, 21, 24
Method: Female NMRI nude mice received unilateral tumor implants subcutaneously in the left flank while under isoflurane anesthesia with human LXFE 937 tumor pieces until tumors were palpable and had reached a volume of ˜100 mm^3. Animals were kept in cages, the temperature inside the cages maintained at 25±1° C. with a relative humidity of 45-65% and an air change rate in the cage of 60-fold per hour. The animals were fed with autoclaved Teklad Global 19% Protein Extruded Diet (T.2019S.12) from Harlan Laboratories and had access to sterile filtered and acidified (pH 2.5) tap water which was changed twice weekly. Feed and water were provided ad libitum. […] Animals were routinely monitored twice daily on working days and daily on Saturdays and Sundays. Starting on day 0, animals were weighed twice a week. Relative body weights (RBW) of individual animals are calculated by dividing the individual absolute body weight on day X (BWx) by the individual body weight on the day of randomization. The tumor volume is determined by a two-dimensional measurement with calipers on the day of randomization (Day 0) and then twice weekly. Tumor volumes are calculated according to the following equation: • Tumor Vol [mm^3]=a [mm]×b^2 [mm^2]×0.5, where “a” is the largest diameter and “b” is the perpendicular diameter of the tumor representing an idealized ellipsoid. The relative volume of an individual tumor on day X (RTVx) is calculated by dividing the absolute volume [mm^3] of the respective tumor on day X (Tx) by the absolute volume of the same tumor on the day of randomization. Schedules are applied to the extent that animal welfare policies allow. Termination of individual mice at tumor volume >2000 mm^3. Stock solutions of compound 15 were prepared as follows for the two treatment groups: • 1) 8 mice, 40 g average weight: 2×18 mg/kg gemcitabine equivalents (bi-weekly dosing; d 0, 3, 7, 10 etc. for 4 weeks)≡58.4 mg/kg≡2.35 mg/mouse. Sample preparation: 115.5 mg weighed in a 10 mL vial dissolved in 7.35 mL 20 mM sodium phosphate buffer pH 7; 4 aliquots with 1.86 mL each in 10 mL vials. Frozen in liquid nitrogen, lyophilized (>48 h) and stoppered. On the day of treatment the lyophilized samples were dissolved in 20 mM sodium phosphate buffer pH 7, containing 5% Glucose and injected intravenously. Intravenous administration with vehicle (20 mM sodium phosphate buffer, 5% D-glucose—pH 7.0), gemcitabine (dissolved in 5% D-glucose; dose 240 mg/kg) and carried out on 1, 8, 15, and 22 and compound 15 (dissolved in 20 mM sodium phosphate buffer, 5% D-glucose—pH 7.0; 18 mg/kg gemcitabine equivalents) was carried on days 0, 3, 7, 10, 14, 17, 21, and 24.

[4] = system: NSLC xenograft model LXFE 397; test: Gemcitabine and compound 15 in human xenograft non small cell lung cancer model LXFE 397; assay type: in vivo, NMRI nude mice
Method: Female NMRI nude mice received unilateral tumor implants subcutaneously in the left flank while under isoflurane anesthesia with human LXFE 397 (squamous cell carcinoma, differentiation: poor) until tumors were palpable and had reached a volume of 50-150 mm^3. Animals were kept in cages, the temperature inside the cages maintained at 25±1° C. with a relative humidity of 45-65% and an air change rate in the cage of 60-fold per hour. The animals were fed with autoclaved Teklad Global 19% Protein Extruded Diet (T.2019S.12) from Harlan Laboratories and had access to sterile filtered and acidified (pH 2.5) tap water which was changed twice weekly. Feed and water are provided ad libitum. […] Animals are routinely monitored twice daily on working days and daily on Saturdays and Sundays. Starting on day 0, animals are weighed twice a week. Relative body weights (RBW) of individual animals are calculated by dividing the individual absolute body weight on day X (BWx) by the individual body weight on the day of randomization. The tumor volume is determined by a two-dimensional measurement with calipers on the day of randomization (Day 0) and then twice weekly. Tumor volumes are calculated according to the following equation: Tumor Vol [mm^3]=a [mm]×b^2 [mm^2]×0.5, where “a” is the largest diameter and “b” is the perpendicular diameter of the tumor representing an idealized ellipsoid. The relative volume of an individual tumor on day X (RTVx) is calculated by dividing the absolute volume [mm^3] of the respective tumor on day X (Tx) by the absolute volume of the same tumor on the day of randomization. Schedules are applied to the extent that animal welfare policies allow. Termination of individual mice at tumor volume >2000 mm^3. Stock solutions of compound 15 were prepared as follows for the two treatment groups: • 1) 8 mice, 40 g average weight: 24 mg/kg Gemcitabine equivalents≡78.48 mg/kg≡3.14 mg/mouse. Sample preparation: 154 mg weighed in a 20 mL vial dissolved in 14.7 mL 20 mM sodium phosphate buffer pH 7; 4 aliquots with 3.6 mL each in 10 mL vials. Frozen in liquid nitrogen, lyophilized (>48 h) and stoppered. • 2) 8 mice, 40 g average weight: 36 mg/kg Gemcitabine equivalents≡117.7 mg/kg≡4.71 mg/mouse. Sample preparation: 231 mg weighed in a 20 mL vial dissolved in 14.7 mL 20 mM sodium phosphate buffer pH 7; 4 aliquots with 3.6 mL each in 10 mL vials. Frozen in liquid nitrogen, lyophilized (>48 h) and stoppered.
On the day of treatment the lyophilized samples were dissolved in 20 mM sodium phosphate buffer pH 7, containing 5% Glucose and injected intravenously. […]

cytidine deaminase = molecular target: T1, cytidine deaminase (Homo sapiens, UniProt P32320); conditions: recommended dose of ˜1000 mg/m^2; cited from earlier work
T1 construct: host or cells: endogenous enzyme in the dosed subject (in vivo metabolism)

[5] = approximately one seventh of the dose of gemcitabine, p<0.05
[6] = gemcitabine 240 mg/kg i.v. days 1, 8, 15, 22

T1 sequence (P32320 whole entry): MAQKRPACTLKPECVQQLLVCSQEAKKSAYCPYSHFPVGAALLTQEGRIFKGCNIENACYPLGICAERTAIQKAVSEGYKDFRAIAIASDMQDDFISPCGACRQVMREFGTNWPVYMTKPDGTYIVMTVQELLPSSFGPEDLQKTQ

Structure (SMILES) | tumor response ([1]; 50 days after the end of therapy, 18 mg/kg gemcitabine equivalents bi-weekly for 4 weeks) | antitumor efficacy versus gemcitabine (tumor growth development) [1, 5] | Body weight change (BWC) versus control [1, 6] | antitumor efficacy versus gemcitabine (tumor growth development) [2, 5] | tumor volumes (change) [2] | Body weight change (BWC) versus control [2] | antitumor efficacy versus gemcitabine (tumor growth development) [3, 5] | Body weight change (BWC) versus control [3, 6] | tumor response ([3]; ˜60 days after the end of therapy, 18 mg/kg gemcitabine equivalents bi-weekly for 4 weeks) | antitumor efficacy versus gemcitabine (tumor growth development) ([4]; 24 mg/kg gemcitabine equivalents, one tenth of the dose of gemcitabine, p<0.05) | Body weight change (BWC) versus control ([4]; day 27, 24 mg/kg gemcitabine equivalents i.v. days 1, 8, 15, 22) [%] | average tumor volume ([1]; 50 days after therapy, gemcitabine 240 mg/kg) [mm^3] | start of tumor regrowth [1, 6] [days after therapy] | mice sacrificed due to tumor volume exceeding 2000 mm^3 ([1]; on day 74, 8 mice per group) [mice] | mice sacrificed due to tumor volume exceeding 2000 mm^3 ([3]; between day 78 to 85, 8 mice per group) [mice] | start of tumor regrowth [3, 6] [days after therapy] | average tumor volume ([3]; ˜50 days after therapy, gemcitabine 240 mg/kg) [mm^3] | Body weight change (BWC) versus control ([4]; day 23, gemcitabine 240 mg/kg i.v. days 1, 8, 15, 22) | mice sacrificed due to tumor volume exceeding 2000 mm^3 ([4]; on day 23, 8 mice per group, gemcitabine 240 mg/kg) [mice] | fraction deactivated by cytidine deaminase to the inactive uridine metabolite and excreted in the urine (cytidine deaminase)
C/C(=N\NC(=O)c1ccc(NC(=O)CCCCCN2C(=O)C=CC2=O)cc1[N+](=O)[O-])c1ccc(C(=O)Nc2ccn([C@@H]3O[C@H](COP(=O)(O)O)C(O)C3(F)F)c(=O)n2)cc1 (stereo partly drawn) [Compound 15] | complete tumor remissions | superior antitumor efficacy | approximately +10% | superior antitumor efficacy | slight regression or stable disease | approximately +3% | superior antitumor efficacy | approximately +2% | complete tumor remissions | superior antitumor efficacy | ~0.5 | – | – | – | – | – | – | – | – | –
Nc1ccn([C@@H]2O[C@H](CO)[C@@H](O)C2(F)F)c(=O)n1 [gemcitabine] | – | – | approximately +5% | – | doubled | approximately +3% | – | approximately +10% | – | – | – | ~2000 | ~10 | 3 | 2 | ~20 | ~700 | approximately −6% | 2 | approximately 90%
